Measured values taken from patent US20070128217A1 (priority 2003, published 2007).

Key:
[1] = system: antibodies in sera from SARS patients (sera 1a, 1b, 2, 6, 37, 62, London, SARS-yellow, SARS-green); format: binding, human; set-up: Binding of serum 6 to linear peptides of protein X1 of SARS-CoV Urbani / Binding of serum 37 to linear peptides of protein X1 of SARS-CoV Urbani / Binding of serum 6 to looped/cyclic peptide (PEPSCAN-ELISA) / Binding of serum 37 to looped/cyclic peptide (PEPSCAN-ELISA) / Binding of serum 37 to looped/cyclic peptides of protein X1 of SARS-CoV Urbani / Binding of serum 6 to linear peptides of protein X2 / Binding of serum 37 to linear peptides of protein X2 / Binding of serum 37 to looped/cyclic peptides of protein X2 of SARS-CoV Urbani / Binding of serum 6 to linear peptides of protein M of SARS-CoV Urbani / Binding of serum 37 to linear peptides of protein M of SARS-CoV Urbani / Binding of serum 6 to looped/cyclic peptides of protein M of SARS-CoV Urbani / Binding of serum 37 to looped/cyclic peptides of protein M of SARS-CoV Urbani / Binding of serum 6 to linear peptides of protein X3 of SARS-CoV Urbani / Binding of serum 37 to linear peptides of protein X3 of SARS-CoV Urbani / Binding of serum 37 to looped/cyclic peptides of protein X3 of SARS-CoV Urbani / Binding of serum 6 to linear peptides of protein X4 of SARS-CoV Urbani / Binding of serum 37 to linear peptides of protein X4 of SARS-CoV Urbani / Binding of serum 37 to looped/cyclic peptides of protein X4 of SARS-CoV Urbani / Binding of serum 6 to linear peptides of protein X5 of SARS-CoV Urbani / Binding of serum 37 to linear peptides of protein X5 of SARS-CoV Urbani / Binding of serum 37 to looped/cyclic peptides of protein X5 of SARS-CoV Urbani / Binding of serum 6 to linear peptides of protein N of SARS-CoV Urbani / Binding of serum 37 to linear peptides of protein N of SARS-CoV Urbani / Binding of serum 6 to linear peptide (PEPSCAN-ELISA) / Binding of serum 1a to looped/cyclic peptides of protein N of SARS-CoV Urbani / Binding of serum 1b to looped/cyclic peptides of protein N of SARS-CoV Urbani / Binding of serum 2 to looped/cyclic peptides of protein N of SARS-CoV Urbani / Binding of serum 6 to looped/cyclic peptides of protein N of SARS-CoV Urbani / Binding of serum 37 to looped/cyclic peptides of protein N of SARS-CoV Urbani / Binding of serum 62 to looped/cyclic peptides of protein N of SARS-CoV Urbani / Binding of serum London to looped/cyclic peptides of protein N of SARS-CoV Urbani / Binding of serum SARS-green to looped/cyclic peptides of protein N of SARS-CoV Urbani: unit not given here
[2] = system: control sera (pooled serum of ten healthy LUMC hospital workers; commercial negative donor pooled serum from the Dutch bloodbank); format: binding, human; set-up: Binding of Control serum LUMC to linear peptides / Binding of Control serum Blood-bank to linear peptides / Binding of Control serum LUMC to looped peptides / Binding of Control Serum Blood-Bank to Looped peptides / Binding of Control serum LUMC to linear peptides of the protein M of SARS-CoV Urbani / Binding of Control serum Blood-bank to linear peptides of the protein M of SARS-CoV Urbani / Binding of Control serum LUMC to looped peptides of the protein M of SARS-CoV Urbani / Binding of Control Serum Blood-Bank to Looped peptides of the protein M of SARS-CoV Urbani: unit not given here
[3] = system: rabbit serum obtained by immunizing a rabbit with the SARS-CoV strain Frankfurt 1; format: binding; set-up: Binding of a rabbit serum to linear peptides / Binding of a rabbit serum to looped peptides / Rabbit serum linear peptides / Rabbit serum looped peptides / Binding of a rabbit serum to linear peptides of protein N of SARS-CoV Urbani (Rabbit serum linear peptides) / Binding of a rabbit serum to looped/cyclic peptides of protein N of SARS-CoV Urbani (Rabbit serum looped peptides): unit not given here
[4] = system: recombinant human anti-SARS-CoV antibody 03-018; format: binding; set-up: Binding of antibody 03-018 to linear peptides of the N protein of SARS-CoV Urbani / Binding of antibody 03-018 to looped/cyclic peptides of the N protein of SARS-CoV Urbani: unit not given here

| Sequence | Binding of serum 1a to linear peptides of protein N of SARS-CoV Urbani [1] | Binding of serum 1a to looped/cyclic peptides of protein N of SARS-CoV Urbani [1] | Binding of serum 1b to linear peptides of protein N of SARS-CoV Urbani [1] | Binding of serum 1b to looped/cyclic peptides of protein N of SARS-CoV Urbani [1] | Binding of serum 2 to linear peptides of protein N of SARS-CoV Urbani [1] | Binding of serum 2 to looped/cyclic peptides of protein N of SARS-CoV Urbani [1] | Binding of serum 6 to linear peptides of protein N of SARS-CoV Urbani [1] | Binding of serum 6 to looped/cyclic peptides of protein N of SARS-CoV Urbani [1] | Binding of serum 37 to linear peptides of protein N of SARS-CoV Urbani [1] | Binding of serum 37 to looped/cyclic peptides of protein N of SARS-CoV Urbani [1] | Binding of serum 62 to linear peptides of protein N of SARS-CoV Urbani [1] | Binding of serum 62 to looped/cyclic peptides of protein N of SARS-CoV Urbani [1] | Binding of serum London to linear peptides of protein N of SARS-CoV Urbani [1] | Binding of serum London to looped/cyclic peptides of protein N of SARS-CoV Urbani [1] | Binding of serum SARS-green to looped/cyclic peptides of protein N of SARS-CoV Urbani [1] | Binding of serum SARS-yellow to looped/cyclic peptides of protein N of SARS-CoV Urbani [1] | Binding of a rabbit serum to linear peptides of protein N of SARS-CoV Urbani (Rabbit serum linear peptides) [3] | Binding of a rabbit serum to looped/cyclic peptides of protein N of SARS-CoV Urbani (Rabbit serum looped peptides) [3] | Binding of antibody 03-018 to linear peptides of the N protein of SARS-CoV Urbani [4] | Binding of antibody 03-018 to looped/cyclic peptides of the N protein of SARS-CoV Urbani [4] | also measured |
| --- | --- | --- | --- | --- | --- | --- | --- | --- | --- | --- | --- | --- | --- | --- | --- | --- | --- | --- | --- | --- | --- |
| TDYKHWPQIAQFAPS | 0.3 | 0.6 | 0.2 | 0.5 | 0.2 | 0.8 | 0.2 | 0.5 | 0.8 | 0.9 | 0.9 | 1.3 | 0.7 | 0.7 | 0.6 | 0.9 | 0.2 | 0.5 | 0.1 | 0.2 | Binding of serum SARS-green to linear peptides of protein N of SARS-CoV Urbani [1]: 0.4; Binding of serum SARS-yellow to linear peptides of protein N of SARS-CoV Urbani [1]: 0.7; Control Serum Blood-Bank Looped peptides [2]: 1.2; Control serum Blood-bank linear peptides [2]: 0.8; Control serum LUMC linear peptides [2]: 0.8; Control serum LUMC looped peptides [2]: 1.1 |
| TFGGPTDSTDNNQNG | 0.3 | 0.3 | 0.1 | 0.2 | 0.2 | 0.3 | 0.2 | 0.2 | 0.8 | 0.4 | 0.6 | 0.3 | 0.6 | 0.3 | 0.5 | 0.1 | 0.1 | 0.1 | 0.1 | 0.2 | Binding of serum SARS-green to linear peptides of protein N of SARS-CoV Urbani [1]: 0.5; Binding of serum SARS-yellow to linear peptides of protein N of SARS-CoV Urbani [1]: 0.5; Binding of Control Serum Blood-Bank to Looped peptides [2]: 0.5; Binding of Control serum Blood-bank to linear peptides [2]: 0.8; Binding of Control serum LUMC to linear peptides [2]: 0.7; Binding of Control serum LUMC to looped peptides [2]: 0.5 |
| TFPPTEPKKDKKKKT | 0.2 | 0.2 | 0.1 | 0.1 | 0.9 | 0.3 | 0.3 | 0.1 | 0.8 | 0.4 | 0.8 | 0.4 | 0.5 | 0.3 | 0.1 | 0.3 | 0.2 | 0.3 | 0.1 | 0.2 | Binding of serum SARS-green to linear peptides of protein N of SARS-CoV Urbani [1]: 0.3; Binding of serum SARS-yellow to linear peptides of protein N of SARS-CoV Urbani [1]: 0.9; Control Serum Blood-Bank Looped peptides [2]: 0.5; Control serum Blood-bank linear peptides [2]: 0.6; Control serum LUMC linear peptides [2]: 0.7; Control serum LUMC looped peptides [2]: 0.4 |
| TKKSAAEASKKPRQK | – | 0.2 | – | 0.1 | – | 0.2 | – | 0.1 | – | 0.4 | – | 0.3 | – | 0.3 | 0.0 | 0.2 | 0.1 | 0.2 | 0.1 | 0.2 | Recognition of the peptide by sera of SARS-CoV infected individuals, and form (linear, looped/cyclic) in which it is recognized [1]: recognized in linear form; Binding of Control Serum Blood-Bank to Looped peptides [2]: 0.4; Binding of Control serum Blood-bank to linear peptides [2]: 0.8; Binding of Control serum LUMC to linear peptides [2]: 0.9; Binding of Control serum LUMC to looped peptides [2]: 0.4 |
